ChEMBL document CHEMBL5370592, “Synthesis and Structure-Activity Relationships of a New Class of Oxadiazoles Targeting DprE1 as Antitubercular Agents” (ACS Med Chem Lett, 2023)
In brackets after ≈: the same amount, converted by molar mass. Activity calls are given as the source filed them. The rule behind the calls is not given here.

Assays:
[1] = Cytotoxicity against human HepG2 cells assessed as reduction in cell viability incubated for 24 hrs in DMEM/10% FBS supplemented with galactose by CellTiter-Glo luminescent assay; assay type: toxicity, cell-based
[2] = Cytotoxicity against human HepG2 cells assessed as reduction in cell viability incubated for 24 hrs in DMEM/10% FBS supplemented with glucose by CellTiter-Glo luminescent assay; assay type: toxicity, cell-based
[3] = system: Mycobacterium tuberculosis; assay: Antitubercular activity against Mycobacterium tuberculosis H37Rv ATCC 27294 assessed as inhibition of bacterial growth cultured in Middlebrook 7H9/glucose/casitone/tyloxapol medium for 2 weeks; assay type: functional; settings: H37Rv ATCC 27294, 336 h
[4] = system: Mycobacterium tuberculosis; assay: Antitubercular activity against Mycobacterium tuberculosis H37Rv ATCC 27294 assessed as inhibition of bacterial growth cultured in Middlebrook 7H9/BSA/Tyloxapol with glucose medium for 2 weeks; assay type: functional; settings: H37Rv ATCC 27294, 336 h
[5] = system: Mycobacterium tuberculosis; assay: Induction of DNA damage in Mycobacterium tuberculosis H37Rv transfected with PradA-LUX reporter assessed as induction of radA reporter gene expression incubated for 12 days by bioluminescence analysis; assay type: functional, organism-based; settings: time 12.0 day
[6] = system: Mycobacterium tuberculosis; assay: Antitubercular activity against Mycobacterium tuberculosis H37Rv ATCC 27294 assessed as inhibition of bacterial growth cultured in Middlebrook 7H9/ADC/Tween 80 medium for 2 weeks; assay type: functional; settings: H37Rv ATCC 27294, 336 h
[7] = system: Mycobacterium tuberculosis; assay: Induction of DNA damage in Mycobacterium tuberculosis H37Rv transfected with PrecA-LUX reporter assessed as induction of recA reporter gene expression incubated for 12 days by bioluminescence analysis; assay type: functional, organism-based; settings: time 12.0 day
[8] = system: Mycobacterium tuberculosis; assay: Antitubercular activity against Mycobacterium tuberculosis H37Rv ATCC 27294 assessed as inhibition of bacterial growth cultured in Middlebrook 7H9/DPPC/cholesterol/BSA/Tyloxapol medium for 2 weeks; assay type: functional; settings: H37Rv ATCC 27294, 336 h
[9] = system: Mycobacterium tuberculosis; assay: Antitubercular activity against Mycobacterium tuberculosis H37RV ATCC 27294 assessed as inhibition of bacterial growth cultured in Middlebrook 7H9/cholesterol/BSA/Tyloxapol medium for 2 weeks; assay type: functional; settings: H37Rv ATCC 27294, 336 h
[10] = system: Mycobacterium tuberculosis; assay: Antitubercular activity against Mycobacterium tuberculosis H37Rv ATCC 27294 assessed as inhibition of bacterial growth cultured in Middlebrook 7H9/ADC/Tween 80 with cydC::aph medium for 2 weeks; assay type: functional; settings: H37Rv ATCC 27294, 336 h

SMILES	IC50 at 24 h [1] [µM]	IC50 at 24 h [2] [µM]	MIC [3] [µM]	MIC [4] [µM]	Activity [5]	MIC [6] [µM]	Activity [7]	MIC [8] [µM]	MIC [9] [µM]	MIC [10] [µM]
O=C(C1CCN(c2nnc(-c3ccccc3)o2)CC1)N1CCc2ccccc2C1	> 50	> 50	37 (≈ 14.4 µg/mL)	50 (≈ 19.4 µg/mL)	–	–	–	–	–	–
O=C(C1CCN(c2nnc(-c3ccccc3)o2)CC1)N1CCC(CC2CCCCC2)CC1	> 50	> 50	0.05 (≈ 0.0218 µg/mL)	0.2 (≈ 0.0873 µg/mL)	–	–	–	–	–	–
O=S(=O)(C1CCN(c2nnc(-c3ccccc3)o2)CC1)N1CCC(Cc2ccccc2)CC1	37.5	> 50	12.5 (≈ 5.83 µg/mL)	> 50	–	–	–	–	–	–
O=C(C1CCN(c2nnc(-c3ccccc3)o2)CC1)N1CCC(c2ccccc2)CC1	37.5	> 50	2.3 (≈ 0.958 µg/mL)	4.7 (≈ 1.96 µg/mL)	–	–	–	–	–	–
O=C(C1CCN(c2nnc(-c3ccc(C(F)(F)F)cc3)o2)CC1)N1CCC(Cc2ccccc2)CC1	> 50	> 50	> 50	> 50	–	–	–	–	–	–
CCN(CC)C(=O)C1CCN(c2nnc(-c3ccccc3)o2)CC1	> 50	> 50	> 50	> 50	–	–	–	–	–	–
NNC(=O)c1ccncc1 [ISONIAZID]	–	–	0.1 (≈ 0.0137 µg/mL)	0.16 (≈ 0.0219 µg/mL)	inactive	0.2 (≈ 0.0274 µg/mL)	inactive	0.2 (≈ 0.0274 µg/mL)	0.39 (≈ 0.0535 µg/mL)	0.39 (≈ 0.0535 µg/mL)
O=C(NCc1ccccc1)C1CCN(c2nnc(-c3ccccc3)o2)CC1	> 50	> 50	25 (≈ 9.06 µg/mL)	> 50	–	–	–	–	–	–
O=C(C1CCN(c2nnc(-c3ccccc3)o2)CC1)N1CCC(Oc2ccccc2)CC1	37.5	37.5	2.3 (≈ 0.995 µg/mL)	4.7 (≈ 2.03 µg/mL)	–	–	–	–	–	–
Cc1nnc(N2CCC(C(=O)N3CCC(Cc4ccccc4)CC3)CC2)o1	> 50	> 50	> 50	> 50	–	–	–	–	–	–
O=C(C1CCN(c2nnc(-c3ccccc3)o2)C1)N1CCC(Cc2ccccc2)CC1 (stereo unspecified)	> 50	> 50	6.3 (≈ 2.62 µg/mL)	50 (≈ 20.8 µg/mL)	–	–	–	–	–	–
O=C(C1CCN(c2nnc(-c3ccccc3)o2)CC1)N1CCCC(Cc2ccccc2)C1 (stereo unspecified)	37.5	> 50	25 (≈ 10.8 µg/mL)	50 (≈ 21.5 µg/mL)	–	–	–	–	–	–
O=C(NC1CCC(Cc2ccccc2)CC1)C1CCN(c2nnc(-c3ccccc3)o2)CC1 (stereo unspecified)	> 50	> 50	4.7 (≈ 2.09 µg/mL)	> 50	–	–	–	–	–	–
CCCCCC[C@H]1C(=O)O[C@H](C)[C@H](NC(=O)c2cccc(NC=O)c2O)C(=O)O[C@@H](C)[C@@H]1OC(=O)CC(C)C [ANTIMYCIN A]	0.12	> 250	–	–	–	–	–	–	–	–
O=C(C1CCN(c2nnc(-c3ccccc3)o2)CC1)N1CCC(C(F)(F)F)CC1	> 50	> 50	0.2 (≈ 0.0817 µg/mL)	1.56 (≈ 0.637 µg/mL)	–	–	–	–	–	–
O=C(C1CCN(c2nnc(-c3ccccc3)o2)CC1)N1CCC(Cc2ccccc2)C1 (stereo unspecified)	37.5	> 50	6.25 (≈ 2.6 µg/mL)	9.4 (≈ 3.92 µg/mL)	–	–	–	–	–	–
